Measured values as given in US9598418B2, “Substituted phthalazin-1 (2H)-one derivatives as selective inhibitors of poly (ADP-ribose) polymerase-1” (CADILA HEALTHCARE LIMITED, priority 2012, dated 2017).

Legend:
[1] = tested on: SW620 colorectal tumor cells (xenograft tumors); test: In vivo antitumor efficacy in combination with temozolomide (TMZ) in an SW620 tumor model; set-up: species or system Female athymic nude mice; settings: for Tumor growth delay: time to RTV4 treated minus control
Description: On basis of the in vitro data, the ability of selected compounds to potentiate the antitumor activity of the methylating chemotherapeutic agent, temozolomide, was evaluated in an SW 620 tumor model.
Animals bearing SW 620 xenograft tumors were treated with the compounds in combination with TMZ (50 mg/Kg, po) once daily for 5 consecutive days, after which the tumors were left to grow out.
Female athymic nude mice were used for antitumor in vivo studies. SW620 colorectal tumor cells (1×10^7 cells per animal) were implanted s.c. into one flank of each mouse. When tumors were palpable (10-12 days after implantation), animals were treated (n=6-8/group) with five daily doses of temozolomide administered per os as a suspension in 0.5% methyl cellulose at 50 mg/kg either alone or in combination with a five daily per os administrations of PARP inhibitor at different doses. Tumor growths were measured using two-dimensional caliper measurements. Tumor volume was calculated using the equation a^2×b/2, where a is the smallest measurement and b is the largest. Data are presented as median relative tumor volumes (RTV), defined as the calculated tumor volume divided by the calculated tumor volume on the initial day of treatment (day 0). Thus, on day 0, the RTV value is 1 and RTV4 is when the tumor is four times as large as its initial value. Control animals were treated with vehicle ([…] in methyl cellulose) alone tumor growth delay (TGD)=Time to RTV4 in treated group−time to RTV4 control.

PARP-1 = biological target: T1, PARP-1 (Homo sapiens, UniProt P09874); test: PARP-1 inhibitory activity, HT universal colorimetric PARP assay kit (Trevigen); type: biochemical; settings: estimation as calculated from a 4 point dose response curve; read-out: PARP-1 activity in vitro IC50
T1 construct: purchased Trevigen
T1 sequence (P09874 whole entry): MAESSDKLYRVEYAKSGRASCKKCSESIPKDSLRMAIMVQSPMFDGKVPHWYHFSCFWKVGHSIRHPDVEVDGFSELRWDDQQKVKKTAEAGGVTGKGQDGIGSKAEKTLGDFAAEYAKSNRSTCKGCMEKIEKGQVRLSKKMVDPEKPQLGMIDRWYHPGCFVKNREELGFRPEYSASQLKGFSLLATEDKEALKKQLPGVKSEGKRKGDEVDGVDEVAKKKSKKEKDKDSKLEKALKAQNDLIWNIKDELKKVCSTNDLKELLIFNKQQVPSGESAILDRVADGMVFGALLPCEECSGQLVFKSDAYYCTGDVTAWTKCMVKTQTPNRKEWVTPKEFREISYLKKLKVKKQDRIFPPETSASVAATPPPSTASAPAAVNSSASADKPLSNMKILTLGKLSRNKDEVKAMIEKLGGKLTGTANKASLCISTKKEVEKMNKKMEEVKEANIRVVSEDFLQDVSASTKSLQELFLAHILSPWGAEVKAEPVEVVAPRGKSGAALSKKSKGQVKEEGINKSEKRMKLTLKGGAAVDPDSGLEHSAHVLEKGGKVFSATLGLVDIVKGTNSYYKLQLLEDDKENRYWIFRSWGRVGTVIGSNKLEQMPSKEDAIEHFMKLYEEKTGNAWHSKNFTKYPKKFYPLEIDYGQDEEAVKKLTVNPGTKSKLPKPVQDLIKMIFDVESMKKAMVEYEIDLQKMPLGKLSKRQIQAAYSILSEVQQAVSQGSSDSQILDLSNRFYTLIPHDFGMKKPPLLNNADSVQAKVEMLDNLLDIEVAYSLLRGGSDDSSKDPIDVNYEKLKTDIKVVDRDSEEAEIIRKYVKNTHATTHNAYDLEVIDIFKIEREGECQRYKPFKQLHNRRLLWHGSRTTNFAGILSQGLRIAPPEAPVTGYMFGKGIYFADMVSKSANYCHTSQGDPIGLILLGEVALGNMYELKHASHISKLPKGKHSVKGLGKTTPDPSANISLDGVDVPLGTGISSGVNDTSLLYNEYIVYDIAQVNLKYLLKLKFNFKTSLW
Description: The compounds were tested for PARP-1 inhibitory activity by using HT universal colorimetric PARP assay kit obtained from Trevigen, following manufacturer's protocol.

[2] = compound 10 mg/kg, po + TMZ 50 mg/kg, once daily for 5 days, compound 45 min before TMZ
[3] = compound 10 mg/kg, po + TMZ 50 mg/kg, once daily for 5 days

O=C(c1cc(Cc2n[nH]c(=O)c3ccccc23)ccc1F)N1Cc2cocc2C1 [Compound 20, 4-(3-(5,6-dihydro-4H-furo[3,4-c]pyrrole-5-carbonyl)-4-fluorobenzyl)phthalazin-1(2H)-one]
Median time to RTV4 ([1]; compound 50 mg/kg, po + TMZ 50 mg/kg, once daily for 5 days, compound 45 min before TMZ): 43 days
Tumor growth delay ([1]; compound 50 mg/kg, po + TMZ 50 mg/kg, once daily for 5 days): 33 days
IC50 (PARP-1): 11.8 nM

Cn1cc2c(n1)CN(C(=O)c1cc(Cc3n[nH]c(=O)c4ccccc34)ccc1F)C2 [Compound 35, 4-(4-fluoro-3-(2-methyl-2,4,5,6-tetrahydropyrrolo[3,4-c]pyrazole-5-carbonyl)benzyl) phthalazin-1(2H)-one]
Median time to RTV4 [1, 2]: 50 days
Tumor growth delay [1, 3]: 40 days
IC50 (PARP-1): 29.9 nM

Cn1ncc2c1CN(C(=O)c1cc(Cc3n[nH]c(=O)c4ccccc34)ccc1F)C2 [Compound 36]
Median time to RTV4 [1, 2]: 37 days
Tumor growth delay [1, 3]: 27 days
Median time to RTV4 ([1]; compound 30 mg/kg, po + TMZ 50 mg/kg, once daily for 5 days, compound 45 min before TMZ): 44 days
Tumor growth delay ([1]; compound 30 mg/kg, po + TMZ 50 mg/kg, once daily for 5 days): 34 days
Median time to RTV4 ([1]; compound 100 mg/kg, po + TMZ 50 mg/kg, once daily for 5 days, compound 45 min before TMZ): 65 days
Tumor growth delay ([1]; compound 100 mg/kg, po + TMZ 50 mg/kg, once daily for 5 days): 55 days
IC50 (PARP-1): 27.9 nM

CC(C)n1cc2c(n1)CN(C(=O)c1cc(Cc3n[nH]c(=O)c4ccccc34)ccc1F)C2 [Compound 55, 5-(2-fluoro-5-((4-oxo-3,4-dihydrophthalazin-1-yl)methyl)benzoyl)-2-isopropyl-2,4,5,6-tetrahydropyrrolo[3,4-c]pyrazol-2-ium hydrogensulfate]
IC50 (PARP-1): 13.2 nM

Cn1nnc2c(C(N)=O)ncn2c1=O [Temozolomide, reference compound]
Median time to RTV4 ([1]; Temozolomide alone 50 mg/kg, po, once daily for 5 consecutive days): 22 days
Tumor growth delay ([1]; Temozolomide alone 50 mg/kg, po, once daily for 5 days): 12 days

Mixture of 1 & 2 Ethyl 4-(3-(2,4,5,6-tetrahydropyrrolo[3,4-c]pyrazole-5-carbonyl)-4-fluorobenzyl)phthalazin-1(2H)-one [Compound 40]
IC50 (PARP-1): 9.9 nM

Mixture of 4-(4-fluoro-3-(1-methyl-1,4,5,6-tetrahydropyrrolo[3,4-c]pyrazole-5-carbonyl)benzyl)phthalazin-1(2H)-one compound with 4-(4-fluoro-3-(2-methyl-2,4,5,6-tetrahydropyrrolo[3,4-c]pyrazole-5-carbonyl)benzyl)phthalazin-1(2H)-one (1:3) [Compound 28]
IC50 (PARP-1): 20.7 nM

Mixture of (1 & 2 isopropyl) 4-(4-fluoro-3-(1,4,5,6-tetrahydropyrrolo[3,4-c]pyrazole-5-carbonyl)benzyl)phthalazin-1(2H)-one [Compound 44]
IC50 (PARP-1): 19.9 nM
